# Assay results from US20200306211A1, “METHOD FOR ADAPTING DOSES OF COMBINATION THERAPIES” (Pharnext, priority 2015, published 2020).
# System: young and elderly healthy volunteers
# Assay: Cognitive Event-Related Potentials (ERP) latency composite score, correlated with plasma drug concentrations
# Type: in vivo, human
# Conditions: plasma concentration at 1.5 h in subjects with best ERP latencies composite score (ERP at Day 10, 6 h post-dose)
# Procedure: The study below was a double blind placebo control study performed in accordance with the European Medicines Agency ICH-E6 (R1) guideline recommendations and the French law n° 2004-806, Aug. 9, 2004 relative to public health law. The study was a preliminary study whose one of the objectives was to assess baclofen and acamprosate combinatorial treatment to improve cognition in young and elderly healthy volunteers. The study was conducted on a cohort of 24 human subjects.
# Briefly, the duration of treatment was of 10 days.
# Electrophysiological measurement of Cognitive Event-Related Potentials (ERPs) were recorded to assess the cognitive performances of the subjects. ERPs are the electrophysiological response to a stimulus and could serve as a surrogate biological marker of cognitive performances. Here, the cognitive task required paying attention and to count odd stimuli according to a specific protocol. Potential is recorded during the test. An ERP latency composite score is determined from the different derivations. […]
# A correlation was searched between each of the different endpoints (i.e. the cognitive tests, or the ERP latency composite score) and drug concentrations determined at each sampling time.
# Pearson's correlation coefficient was determined for each of the endpoints and different plasmatic concentrations measured as a function of time.
row,SMILES,Most efficient plasmatic concentration in trial
1,CC(=O)NCCCS(=O)(=O)O [acamprosate],>2.5 ng/mL
2,NCC(CC(=O)O)c1ccc(Cl)cc1 (centres unmarked) [baclofen],≥500 ng/mL
